Measured values: patent US10533034B2, “Human iNKT cell activation using glycolipids” (ACADEMIA SINICA, priority 2014, dated 2020)

What was measured:
Vα24+/Vβ11+ iNKT TCR = Vα24+/Vβ11+ iNKT TCR (Homo sapiens, UniProt A0A075B6N4+A0A0B4J240+P15813); assay: Binding avidity of hCD1d-loaded glycolipids with Vα24+ iNKT cells (ternary interaction); conditions: in complex with hCD1d; Scatchard transformation; read-out: KD of ternary complex, hCD1d-glycolipid toward Vα24+/Vβ11+ iNKT TCR
Method: (3A) DN3A4-1.2 Vα14+ iNKT hybridoma cells and (3B) 7DW8-5-expanded Vα24^+ iNKT cells were incubated with various concentrations of the indicated dimeric mCD d-glycolipid and hCD1d-glycolipid complexes for 30 min at 4° C., respectively. The level of bound complexes at the indicated concentration was detected by anti-mIgG1 secondary antibody and analyzed by flow cytometry. The relationship between the binding percentage and the concentration of CD1ddi-glycolipids complex was plotted in mice (3A) and humans (3B). KD values in mice (3C) and humans (3D) were calculated from Scatchard transformation of the plot (3A) and 3B), respectively. Assay was performed in duplicates. Binding avidity of human CD1d-glycolipid complexes to Vα24^+ iNKT cells expanded by 7DW8-5 at 100 ng/ml was determined as described previously.^19 Next, we measured the ternary interaction between CD1d-glcolipid complex and the iNKT TCR in mice and humans. Different concentrations of mCD1d^di-glycolipid and hCD1d^di-glycolipid complexes were incubated with fixed amounts of DN3A4-1.2 murine iNKT hybridoma cells and human Vα24+/Vβ11^+ iNKT cells, respectively. The level of bound complexes at the indicated concentration was detected by anti-mIgG1 secondary antibody and analyzed by flow cytometry (FIGS. 3A and 3B). The KD of the ternary complex was calculated from the Scatchard transformation of the plots in FIGS. 3A and 3B using GraphPad Prism software. […] This was consistent with the observation that higher percentages of C1-pulsed splenocytes were stained by the mCD1d-7DW8-5 complex (36.2±5.0%) than mCD1d-7DW8-5-Glc complex (17.1±0.8%) (FIG. 11).

[1] = tested on: iNKT TCR of DN3A4-1.2 Vα14+ iNKT hybridoma cells; assay: Binding avidity of mCD1d-loaded glycolipids to Vα14+ iNKT cells (ternary interaction); design: species or system mouse; conditions: complexed with mCD1d; Scatchard transformation; flow cytometry; read-out: KD of ternary complex, mCD1d-glycolipid toward iNKT TCR
Method: (3A) DN3A4-1.2 Vα14+ iNKT hybridoma cells and (3B) 7DW8-5-expanded Vα24^+ iNKT cells were incubated with various concentrations of the indicated dimeric mCD d-glycolipid and hCD1d-glycolipid complexes for 30 min at 4° C., respectively. The level of bound complexes at the indicated concentration was detected by anti-mIgG1 secondary antibody and analyzed by flow cytometry. The relationship between the binding percentage and the concentration of CD1ddi-glycolipids complex was plotted in mice (3A) and humans (3B). KD values in mice (3C) and humans (3D) were calculated from Scatchard transformation of the plot (3A) and 3B), respectively. Assay was performed in duplicates.
Briefly, murine CD1d:Ig dimer (BD Biosciences PharMingen, San Diego, Calif.) was loaded with glycolipids at a molar ratio of 1:10 or vehicle for overnight at 37° C. Murine 1.2 Vα14+ iNKT cells were incubated with various doses of dimer-glycolipid complex in buffer containing azide (0.05%) for 30 min at 4° C. These cells were then stained with anti-mouse IgG1-PE mAb (A85-1) for another 30 min at 4° C., followed by washing, fixation with 4% paraformaldehyde (PFA), and the bound mCD1d dimer complexes were detected by flow cytometry. The binding curve and linear fit of the Scatchard transformation were plotted by Graphpad Prism software.
Next, we measured the ternary interaction between CD1d-glcolipid complex and the iNKT TCR in mice and humans. Different concentrations of mCD1d^di-glycolipid and hCD1d^di-glycolipid complexes were incubated with fixed amounts of DN3A4-1.2 murine iNKT hybridoma cells and human Vα24+/Vβ11^+ iNKT cells, respectively. The level of bound complexes at the indicated concentration was detected by anti-mIgG1 secondary antibody and analyzed by flow cytometry (FIGS. 3A and 3B). The KD of the ternary complex was calculated from the Scatchard transformation of the plots in FIGS. 3A and 3B using GraphPad Prism software. […] This was consistent with the observation that higher percentages of C1-pulsed splenocytes were stained by the mCD1d-7DW8-5 complex (36.2±5.0%) than mCD1d-7DW8-5-Glc complex (17.1±0.8%) (FIG. 11).

B6 WT mice splenocytes = assay: FACS analyses of WT mouse immune cells after glycolipid stimulation; format: in vivo; conditions: 1 μg/mouse; 72 hr
Method: B6 WT mice treated with the indicated glycolipid (1 μg/mouse) or vehicle (1% DMSO in PBS) were sacrificed at 72 hr post-injection and their splenocytes were subjected to FACS analysis. (8A) The total splenocytes, (8B) total CD11Chi cells, (8C) CD11Chi/CD80+ cells, (8D) CD11Chi/CD86+ cells, (8E) CD4^+ T cells and (8F) CD8^+ T cells.
B6 WT or Jα18 KO mice treated with specific glycolipid (1 μg/mouse) or vehicle (1% DMSO in PBS) were sacrificed at 72 hr post-injection and their spleens were harvested. After pressing spleens through 70 um strainer and lysis of erythrocytes, the nucleated cells were resuspended in PBS buffer containing azide (0.05%) and stained with antibodies recognizing the indicated cell surface antigens for 30 min at 4° C. After washing, the splenocytes were subjected to FACS analysis. The antibodies against CD3, CD4, CD8α, CD11c, CD80, and CD86 were obtained from BD Bioscience-Pharmingen.
Next, we analyzed the expansion/activation of immune cells in WT mice 3 days after glycolipid stimulation. The numbers of total T cells, CD4^+ T and CD8^+ T cells were higher in mice treated by GSLs with αGal head than those treated by GSLs with αGlc (FIGS. 2C, 8E and 8F). This was in line with the observation that more cytokines/chemokines were induced by GSLs with αGal than GSLs with αGlc in mice (FIGS. 2A, 2B and 7). […] As compared to 7DW8-5-Glc, C1-Glc not only expanded ˜1.3 fold more splenocytes and DCs (FIGS. 8A and 8B) but also activated ˜3.5 fold more CD80^+ DCs as well as ˜3 fold more CD86^+ DCs (FIGS. 8C and 8D). The increased expansion/activation of DCs may contribute to the stronger immunogenicity triggered by C1-Glc and C34-Glc as compared to 7DW8-5-Glc in vivo.

B6 wild type mice = assay: Murine serum cytokine/chemokine secretion after i.v. glycolipid, wild type mice; format: in vivo, mouse; conditions: 1 μg/mouse i.v.; 2 and 18 hr
Method: B6 wild type mice were i.v. injected with 7DW8-5-Glc at 0.1 or 1 μg/mouse. Sera collected at 2 h and 18 h post-injection were analyzed for chemokine secretions such as IP-10 (6A), KC (6B), MCP-1 (6C), and MIP-1α (6D). These chemokines peaked at 2 hr post-injection.
B6 wild type and Jα18 knockout mice were i.v. injected with the indicated glycolipids (1 μg/mouse) or vehicle. Sera collected at 2 h and 18 h post-injection were analyzed for cytokines like IL-2 (7A), IL-6 (7B), GM-CSF (7C) and TNFα (7D) as well as chemokines such as IP-10 (7E), MIG (7F), KC (7G) and MCP-1 (7H). Only MIG peaked at 18 hr post-injection, while the others peaked at 2 hr post-injection.
All the glycolipids were dissolved in 100% DMSO at a concentration of 1-2 mg/ml. For in vivo experiments, all compounds were diluted to 10 μg/ml in saline just before injection of 100 μl diluted glycolipid or 100 μl 1% DMSO into mice. Pathogen-free C57BL/6 female mice aged 6-12 weeks were obtained from the National Laboratory Animal Center (Taipei, Taiwan). Jα18 knockout (KO) B6 mice were the gifts from Dr. Masaru Taniguchi (RIKEN Research Center for Allergy and Immunology, Yokohama, Japan). All the mice were maintained in pathogen free vivarium of Institute of Cellular and Organismic Biology, Academia Sinica (Taipei, Taiwan).
B6 WT or Jα18 KO mice were intravenously injected with vehicle or glycolipids at 0.1 or 1 μg/mouse. Serum was collected at 2 and 18 h after injection for measurement of cytokines/chemokines by Beadlyte® Mouse Cytokine kit (Millipore, N.Y.) and read by a Luminex® 200™ system (Luminex, Austin, Tex.).
Previously, 0.1 μg/mouse of 7DW8-5 was sufficient for immune stimulation,^19 but higher dosage (1 μg/mouse) was required for the glucose analog 7DW8-5-Glc to induce immune responses (FIG. 6). Thus, the biological activities of newly synthesized glycolipids were tested in B6 mice 2 and 18 hr after i.v. injection of glycolipids at 1 μg/mouse. […] As compared to GSLs with αGlc, GSLs with αGal induced higher levels of cytokines and chemokines, including IFN-γ, IL-2, IL-4, IL-6, GM-CSF, TNFα and IP-10.

[2] = tested on: human Vα24-restricted NKT cells; assay: Cytokine production of human iNKT cells co-cultured with autologous DCs and glycolipids (Luminex); format: cell-based; conditions: 1 μg/mL; 72 hrs
Method: Human Vα24-restricted NKT cells were isolated from PBMC by magnetic beads, and iNKT cells were cultured with 50 μ/mL recombinant human IL-2. Two days later, iNKT cells were co-cultured with autologous monocyte-derived DCs and different glycolipids at 1 μg/mL in 96 wells. At 72 hrs, the supernatant were collected to determine the cytokines profiles by Luminex. (A) Secretion of IFN-γ and IL-4 was similar among all glycolipids. […] One-way ANOVA was used for statistic analysis. ***P<0.001 compared with C1. #, P<0.05 compared to C34.
To compare the capacities of C1, C34, K691, K705 and K706 in activating human iNKT cells, human Vα24-restricted NKT cells were isolated from PBMC by magnetic beads, and incubated with recombinant human IL-2 ([…]). Two days later, iNKT cells were co-cultured with autologous monocyte-derived DCs loaded with different glycolipids (1 μg/mL), including C1, C34, K691, K705 and K706, in 96 wells for three days. The supernatants were collected to determine cytokines/chemokines by Luminex assay. […] (Statistical evaluation was performed using one-way ANOVA. *P<0.05 compared with C1. #, P=0.002 compared with C34, using Student's T test).

Chain of Vα24+/Vβ11+ iNKT TCR (P01848 whole entry): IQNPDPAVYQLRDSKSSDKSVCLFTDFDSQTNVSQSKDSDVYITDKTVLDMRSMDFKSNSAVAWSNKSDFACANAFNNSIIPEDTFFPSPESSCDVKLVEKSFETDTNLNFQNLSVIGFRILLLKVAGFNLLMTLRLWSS
Chain of Vα24+/Vβ11+ iNKT TCR (A0A075B6N4 22-114): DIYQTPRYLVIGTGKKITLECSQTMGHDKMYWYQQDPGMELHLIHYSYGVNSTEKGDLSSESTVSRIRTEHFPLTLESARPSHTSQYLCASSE
Chain of Vα24+/Vβ11+ iNKT TCR (P61769 21-119, further chain): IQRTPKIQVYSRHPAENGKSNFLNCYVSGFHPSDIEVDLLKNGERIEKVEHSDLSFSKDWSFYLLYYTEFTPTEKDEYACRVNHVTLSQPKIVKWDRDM
Chain of Vα24+/Vβ11+ iNKT TCR (A0A0B4J240 22-114): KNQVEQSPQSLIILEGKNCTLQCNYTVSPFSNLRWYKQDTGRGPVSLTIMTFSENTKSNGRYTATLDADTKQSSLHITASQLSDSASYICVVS
Chain of Vα24+/Vβ11+ iNKT TCR (P15813 20-301): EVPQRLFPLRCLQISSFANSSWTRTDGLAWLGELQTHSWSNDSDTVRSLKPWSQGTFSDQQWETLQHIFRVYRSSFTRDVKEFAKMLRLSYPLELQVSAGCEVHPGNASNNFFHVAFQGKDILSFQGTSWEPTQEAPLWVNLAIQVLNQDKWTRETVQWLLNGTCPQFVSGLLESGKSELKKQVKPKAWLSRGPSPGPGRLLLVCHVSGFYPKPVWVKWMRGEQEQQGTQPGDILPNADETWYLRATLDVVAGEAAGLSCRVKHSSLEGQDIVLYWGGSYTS

Row | SMILES | Kd (Vα24+/Vβ11+ iNKT TCR) [nM] | Kd [1] [nM] | CD80+ DCs activated, fold more than 7DW8-5-Glc (B6 WT mice splenocytes) [fold] | CD86+ DCs activated, fold more than 7DW8-5-Glc (B6 WT mice splenocytes) [fold] | DCs expanded, fold more than 7DW8-5-Glc (B6 WT mice splenocytes) [fold] | splenocytes expanded, fold more than 7DW8-5-Glc (B6 WT mice splenocytes) [fold] | induction of serum cytokines/chemokines (B6 wild type mice) | Ratio of IFN-γ/IL-4 compared with C1 [2]
1 | CCCCCCCCCCCCCCCCCCCCCCCCCC(=O)N[C@@H](CO[C@H]1O[C@H](CO)[C@H](O)[C@H](O)[C@H]1O)[C@H](O)[C@H](O)CCCCCCCCCCCCCC [Compound C1, α-Galactosyl ceramide, reference compound] | 16.4 ± 4.2 | 1.24 ± 0.003 | – | – | – | – | – | –
2 | CCC(=O)N[C@@H](CO[C@H]1OC(CO)[C@@H](O)C(O)C1O)[C@H](O)[C@H](O)CC (some centres unmarked) [Compound C1-Glc] | 8.55 ± 0.617 | 5.14 ± 0.11 | ~3.5 | ~3 | ~1.3 | ~1.3 | triggered both cytokines and chemokines | –
3 | CC[C@@H](O)[C@@H](O)[C@H](CO[C@H]1OC(CO)[C@@H](O)C(O)C1O)NC(=O)Cc1ccc(Oc2ccc(F)cc2)cc1 (some centres unmarked) [Compound C34-Glc] | 0.378 ± 0.019 | 7.96 ± 1.27 | ~2 | ~2 | – | – | triggered both cytokines and chemokines | –
4 | CCCCCCCCCCCCCCC(O)C(O)C(COC1OC(CO)C(O)C(O)C1O)NC(=O)CCCCCCCCCCc1ccc(Oc2ccc(F)cc2)cc1 (centres unmarked) [Compound C34] | 0.498 ± 0.005 | 0.735 ± 0.01 | – | – | – | – | – | significantly higher
